BindingDB's records for doi:10.7270/Q2TX3CTT (Broad Institute, 2010)

Target: Glycogen synthase kinase-3 beta (Homo sapiens, UniProt P49841)
Assay: concentration-response blocking of human GSK3B – biochemical, luminescence, cell-free homogeneous, retest, dose response (AID 434954)

Sequence of Glycogen synthase kinase-3 beta (P49841 whole entry): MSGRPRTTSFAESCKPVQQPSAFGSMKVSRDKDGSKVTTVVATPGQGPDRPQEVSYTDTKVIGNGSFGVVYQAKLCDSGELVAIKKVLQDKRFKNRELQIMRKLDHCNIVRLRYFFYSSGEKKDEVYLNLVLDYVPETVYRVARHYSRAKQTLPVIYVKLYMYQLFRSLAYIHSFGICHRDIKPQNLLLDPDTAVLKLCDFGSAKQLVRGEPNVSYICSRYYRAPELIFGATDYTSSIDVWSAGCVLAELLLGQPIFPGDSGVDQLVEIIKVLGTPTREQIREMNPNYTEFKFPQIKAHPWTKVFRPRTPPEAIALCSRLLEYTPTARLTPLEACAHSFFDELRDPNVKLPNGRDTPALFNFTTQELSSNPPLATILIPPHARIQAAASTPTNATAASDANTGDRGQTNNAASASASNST

Row | SMILES | EC50
1 | c1cncc(-c2nc(NCc3cccs3)c3ccccc3n2)c1 | > 300 µM
2 | Cc1ccc(C(=O)c2coc3ccc(O)cc23)cc1 [SMR000539213] | 11.2 µM
3 | CCCn1nc(NC(=O)C2CCCO2)c2cc3cc(C)ccc3nc21 (stereo not given) [SMR000148635] | > 300 µM
4 | COc1cc(C2C3=C(CC(C)(C)CC3=O)N=C(C)C2C#N)ccc1O (stereo not given) [4-(4-hydroxy-3-methoxyphenyl)-2,7,7-trimethyl-5-oxo-1,4,6,8-tetrahydroquinoline-3-carbonitrile] | > 300 µM
5 | C[O+]=N[CH-]c1ccc(Oc2ccc(C)cc2)c([N+](=O)[O-])c1 [4-(4-methylphenoxy)-3-nitrobenzenecarbaldehyde O-methyloxime] | > 300 µM
6 | Nc1nonc1-n1nnc(C(=O)NN=Cc2ccccn2)c1CNc1ccccc1 [1-(4-amino-1,2,5-oxadiazol-3-yl)-5-(anilinomethyl)-N-(2-pyridinylmethylideneamino)-4-triazolecarboxamide] | > 300 µM
7 | CCCN1CCN(CCCNC(=O)Cn2nc(C)n3c(cc4cc(OC)ccc43)c2=O)CC1 [MLS001110985] | > 300 µM
8 | Cc1oc2c(CN(C)C)c(O)ccc2c(=O)c1-c1ccc2ccccc2n1 [8-[(dimethylamino)methyl]-2-methyl-7-oxidanyl-3-quinolin-2-yl-chromen-4-one] | > 300 µM
9 | Cn1c(SCc2nnc(-c3ccc(F)cc3)o2)nnc1C1COc2ccccc2O1 (stereo not given) [MLS000098636] | 221 µM
10 | CN(C)C(CNC(=O)c1ccc2ccccc2c1)c1ccco1 (stereo not given) [SMR000377096] | > 300 µM
11 | O=C(Cc1sc(N2CCCCC2)nc1O)Nc1cccc(C(F)(F)F)c1 [MLS000570409] | > 300 µM
12 | NC(=O)C1CCN(c2nc3c(S(=O)(=O)c4ccccc4)nnn3c3ccccc23)CC1 [SMR000629006] | > 300 µM
13 | NC(=O)c1ccc(N2CCCCCC2)c([N+](=O)[O-])c1 [MLS000688695] | > 300 µM
14 | CCCN1CCN(CCCNC(=O)c2ccc3c(c2)NC(=O)c2ccccc2S3)CC1 [MLS001110989] | > 300 µM
15 | CCCCOC(=O)C1C(C)=Nc2ncnn2C1c1cc(OC)c(OC)cc1OC (stereo not given) [butyl 5-methyl-7-(2,4,5-trimethoxyphenyl)-4,7-dihydro[1,2,4]triazolo[1,5-a]pyrimidine-6-carboxylate] | > 300 µM
16 | Cc1nn(-c2ccccn2)c2c1C(c1ccsc1)C1C(=O)CCCC1=N2 (stereo not given) [ethanol;3-methyl-1-(2-pyridinyl)-4-(3-thiophenyl)-4,6,7,8-tetrahydro-2H-pyrazolo[3,4-b]quinolin-5-one] | > 300 µM
17 | Cc1ccc(C(=O)ON=C(N)c2ccccn2)c(C)c1 | 14.9 µM
18 | COc1ccc(C(=O)c2coc3ccc(O)c(CN4CCCCC4)c23)cc1 [[5-hydroxy-4-(piperidin-1-ylmethyl)-1-benzofuran-3-yl]-(4-methoxyphenyl)methanone] | > 300 µM
19 | CC1=C(C(=O)OCC2CCCO2)C(c2ccsc2)C2C(=O)CC(C)(C)CC2=N1 (stereo not given) [SMR000279706] | > 300 µM
20 | O=NCc1cn(-c2ccccc2)nc1-c1ccccc1 [1,3-diphenyl-4-pyrazolecarboxaldehyde oxime] | 26 µM
21 | COc1ccc2nc(NC(=O)C3CCCO3)sc2c1 (stereo not given) [N-(6-methoxy-1,3-benzothiazol-2-yl)-2-oxolanecarboxamide] | > 300 µM
22 | Nc1nonc1-n1nnc(C(=O)NN=Cc2ccccc2F)c1CN1CCc2ccccc21 [MLS001075096] | 22.5 µM
23 | CC1CCN(c2nc3c(N)ncnc3n2[C@@H]2O[C@H](CO)[C@@H](O)[C@H]2O)CC1 | > 300 µM
24 | O=C1CN(c2nc(-c3cccnc3)nc3sc4c(c23)CCCC4)CCN1 [MLS000772211] | 24.8 µM
25 | CCOC(=O)N1CCN(S(=O)(=O)c2cc(Br)cc3c2N(C(=O)C2CC2)CC3)CC1 [ethyl 4-[(5-bromanyl-1-cyclopropylcarbonyl-2,3-dihydroindol-7-yl)sulfonyl]piperazine-1-carboxylate] | > 300 µM

Row | SMILES | EC50
26 | COc1cccc(-c2nnc3sc(C4CCCCC4)nn23)c1 [6-cyclohexyl-3-(3-methoxyphenyl)-[1,2,4]triazolo[3,4-b][1,3,4]thiadiazole] | 16.3 µM
27 | Cc1noc2c1C(c1ccc(N(C)C)cc1)C1C(=O)CC(C)(C)CC1=N2 (stereo not given) [MLS000565136] | > 300 µM
28 | O=C1Nc2cc(C(=O)NCCCN3CCOCC3)ccc2S/C1=C/c1cccc(Cl)c1 [(2E)-2-[(3-chlorophenyl)methylidene]-N-(3-morpholin-4-ylpropyl)-3-oxidanylidene-4H-1,4-benzothiazine-6-carboxamide] | 15.1 µM
29 | Cc1ccc2cc3c(NC(=O)C4CCCO4)nn(CC(C)C)c3nc2c1 (stereo not given) [SMR000148634] | > 300 µM
30 | O=Cc1cc(CCC(=O)O)ccc1O [SMR000639316] | > 300 µM
31 | COC(=O)CSc1nnc(-c2ccncc2)o1 [methyl 2-[(5-pyridin-4-yl-1,3,4-oxadiazol-2-yl)sulfanyl]ethanoate] | > 300 µM
32 | COC(=O)c1ccc(-n2c(O)cc(N3CCN(C(=O)c4ccco4)CC3)c2O)cc1 [MLS000027707] | > 300 µM
33 | Cc1ccc(CNc2nc(N)c([N+](=O)[O-])c(NCCO)n2)cc1 | 117 µM
34 | CNc1nc(N)c([N+](=O)[O-])c(NCC2CCCO2)n1 (stereo not given) [SMR000436173] | 49.7 µM
35 | CC1=NC(=O)NC(c2ccccc2OC(F)F)C1C(=O)OCc1ccccc1 (stereo not given) | 4.4 µM
36 | Nc1nnc(CC(=O)NN=Cc2ccccc2OCc2ccc(F)cc2)s1 [SMR000420435] | > 300 µM
37 | CS(=O)(=O)c1ccccc1-c1nnc(NC(=O)c2ccc3ncsc3c2)o1 | > 300 µM
38 | CSc1nnc2ccc(-c3cccs3)nn12 [SMR000324231] | > 300 µM
39 | Cc1ccc2c(c1)N(C(=O)CCC(=O)NCc1ccccc1)CC(C)O2 (stereo not given) | > 300 µM
40 | CN1CCN(C(=O)c2ccc(OCCOc3ccccc3)cc2)CC1 [(4-methylpiperazin-1-yl)-[4-(2-phenoxyethoxy)phenyl]methanone] | > 300 µM
41 | Cc1cc(-c2onc3ccc(Cl)cc23)ccc1O [(4E)-4-(5-chloro-1H-2,1-benzoxazol-3-ylidene)-2-methylcyclohexa-2,5-dien-1-one] | > 300 µM
42 | c1ccc(CNCC2COc3ccccc3O2)cc1 (stereo not given) [Benzyl-(2,3-dihydro-benzo[1,4]dioxin-2-ylmethyl)-amine] | > 300 µM
43 | COc1cccc2cc(C(=O)CS(=O)(=O)c3ccc(C(C)(C)C)cc3)c(=O)oc12 [3-[2-(4-tert-butylphenyl)sulfonyl-1-oxoethyl]-8-methoxy-1-benzopyran-2-one] | > 300 µM
44 | COc1cc(C(=O)NC(=S)N(CCc2ccccc2)CCc2ccccc2)cc(OC)c1OC [N-[bis(2-phenylethyl)carbamothioyl]-3,4,5-trimethoxybenzamide] | > 300 µM
45 | Cc1ccc(SCc2c(C(=O)NN=Cc3ccoc3)nnn2-c2nonc2N)cc1 [SMR000647588] | > 300 µM
46 | CC(C)CNc1nc(N)c([N+](=O)[O-])c(NC2CCCCC2)n1 [MLS001213331] | 13.5 µM
47 | COc1cccc(C2Nc3ccccc3N=C3CC(C)(C)CC(=O)C32)c1 (stereo not given) [MLS001207292] | > 300 µM
48 | COc1ccc(C(=O)Nc2ccc([N+](=O)[O-])cn2)cc1OC [3,4-dimethoxy-N-(5-nitropyridin-2-yl)benzamide] | > 300 µM
49 | COc1cccc(C(=O)Nc2nnc(C(C)C)s2)c1 [SMR000013475] | > 300 µM
50 | Cc1ccc(CC(=O)Nc2ncc([N+](=O)[O-])s2)cc1 [2-(4-methylphenyl)-N-(5-nitro-1,3-thiazol-2-yl)acetamide] | 28.8 µM
